Reference: article PMC12406200, “Structural Basis of PPARγ-Mediated Transcriptional Repression by the Covalent Inverse Agonist FX-909” (Journal of Medicinal Chemistry, 2025)

Tests used:
[1] = molecular target: T1, full-length human PPARγ (isoform 2) (Homo sapiens, UniProt P37231); assay: Transcriptional reporter assay (3xPPRE-luciferase) in HEK293T cells transfected with full-length PPARγ; format: cell-based; details: for IC50: full-length PPARγ + 3xPPRE-luciferase, 18 h treatment, n = 4, three-parameter fit, read-out: cellular IC50 (decrease in PPARγ-mediated transcription)
T1 construct: full-length human PPARγ (isoform 2) expression plasmid; expressed in transfected cells; host or cells: HEK293T (ATCC #CRL-11268)
T1 sequence (P37231 1-505): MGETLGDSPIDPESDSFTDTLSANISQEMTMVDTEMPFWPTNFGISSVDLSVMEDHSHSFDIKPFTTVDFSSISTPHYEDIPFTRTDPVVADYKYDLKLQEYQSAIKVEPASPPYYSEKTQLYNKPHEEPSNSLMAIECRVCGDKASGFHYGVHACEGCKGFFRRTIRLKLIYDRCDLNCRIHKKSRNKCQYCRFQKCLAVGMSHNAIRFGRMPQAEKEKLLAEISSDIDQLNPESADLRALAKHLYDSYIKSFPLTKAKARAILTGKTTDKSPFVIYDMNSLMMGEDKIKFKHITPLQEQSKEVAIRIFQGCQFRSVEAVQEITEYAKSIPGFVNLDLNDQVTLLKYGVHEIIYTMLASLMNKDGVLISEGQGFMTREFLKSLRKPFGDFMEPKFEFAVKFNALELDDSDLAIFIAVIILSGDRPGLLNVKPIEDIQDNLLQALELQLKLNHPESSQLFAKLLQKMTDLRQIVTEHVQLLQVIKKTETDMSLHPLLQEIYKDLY
Experimental: 1 Pharmacological PPARγ ligand set used in this study. (A) Chemical structures and pharmacological properties of the ligands. […] (B) Transcriptional reporter assay performed in HEK293T cells transfected with a full-length PPARγ expression plasmid and a 3xPPRE-luciferase reporter plasmid. Data were normalized to cells treated with DMSO control, represented as mean ± s.d.
After an 18 h incubation, cells were transferred to white 384-well cell culture plates (Thermo Fisher Scientific) at 10,000 cells/well in 20 μL total volume/well. After a 4 h incubation, cells were treated in quadruplicate with 20 μL of either vehicle control (1.5% DMSO in DMEM) or a 3-fold serial dilution of ligands (1 μM highest ligand concentration). After a final 18 h incubation, cells were harvested with 20 μL of Britelite Plus (PerkinElmer), and luminescence was measured on a BioTek Synergy Neo multimode plate reader. Data were plotted in GraphPad Prism as luminescence vs ligand concentration as mean ± s.d. (n = 4) and fit to a three-parameter sigmoidal dose–response curve equation.

[2] = molecular target: T2, PPARγ LBD / NCoR1 corepressor peptide (Homo sapiens, UniProt P37231); assay: TR-FRET coregulator interaction assay, NCoR1 corepressor peptide; format: biochemical; details: for EC50: 4 nM 6xHis-PPARγ LBD, 400 nM FITC-NCoR1 peptide, 1 h at 25 °C, n = 3, read-out: NCoR1 TR-FRET EC50 (increase in NCoR1 peptide interaction)
T2 construct: residues 203–477 (isoform 1 numbering) with a TEV-cleavable N-terminal hexa-his-tag; made in house; host or cells: Escherichia coli BL21(DE3), pET46 plasmid
T2 sequence (P37231 203-477 isoform P37231-2): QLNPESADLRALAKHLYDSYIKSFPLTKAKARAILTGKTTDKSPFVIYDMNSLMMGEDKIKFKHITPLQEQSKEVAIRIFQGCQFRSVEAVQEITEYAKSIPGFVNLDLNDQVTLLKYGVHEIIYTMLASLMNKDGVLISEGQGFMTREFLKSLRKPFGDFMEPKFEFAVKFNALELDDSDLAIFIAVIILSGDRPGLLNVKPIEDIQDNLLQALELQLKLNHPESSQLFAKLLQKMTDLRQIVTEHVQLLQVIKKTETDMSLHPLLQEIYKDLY
From the text: (§1) We next characterized the ligand set using biochemical assays that report on ligand-dependent changes in the interaction between PPARγ LBD and FITC-labeled peptides derived from NR coregulator proteins that contribute to PPARγ-mediated transcription in cells, including the TRAP220/MED1 coactivator and NCoR1 corepressor. We used time-resolved fluorescence resonance energy transfer (TR-FRET) assays to determine relative ligand potency (or covalent reactivity) and efficacy (via increased or decreased TR-FRET ratio values). […] We performed fluorescence polarization (FP) assays to directly measure binding affinities between the PPARγ LBD and coregulator peptides.
(§2) 2 Biochemical coregulator profiling data. Time-resolved fluorescence resonance energy transfer (TR-FRET) coregulator interaction assay performed with (A) the NCoR1 corepressor peptide or (B) the TRAP220/MED1 coactivator peptide in the presence of the indicated ligands. Data represent mean ± s.e.m. […] Fluorescence polarization (FP) binding assay performed with (C) NCoR1 corepressor peptide or (D) TRAP220/MED1 coactivator peptide in the presence of the indicated ligands. Data represent mean ± s.e.m. […] (E) Pairwise correlation plots between PPARγ-mediated transcription (y-axis) and biochemical coregulator profiling data (x-axis). Spearman correlation coefficients (r p) and associated two-tailed p values are listed.
(§3) Time-resolved fluorescence resonance energy transfer (TR-FRET) coregulator peptide interaction assays were performed in low-volume black 384-well plates (Greiner) using a 23 μL final well volume. Each well contained 4 nM protein (WT or mutant 6xHis-PPARγ LBD), 1 nM LanthaScreen Elite Tb-anti-His Antibody (ThermoFisher #PV5895), and 400 nM FITC-labeled TRAP220/MED1 and NCoR1 peptide in a buffer containing 20 mM potassium phosphate (pH 7.4), 50 mM KCl, 5 mM TCEP, and 0.005% Tween 20. Ligand stocks were prepared via serial dilution in DMSO, added to wells in triplicate (10 μM highest final ligand concentration), and plates were read using BioTek Synergy Neo multimode plate reader after incubation for 1 h at 25 °C.

[3] = molecular target: T3, PPARγ LBD / TRAP220/MED1 coactivator peptide (Homo sapiens, UniProt P37231); assay: TR-FRET coregulator interaction assay, TRAP220/MED1 coactivator peptide; format: biochemical; details: for IC50: 4 nM 6xHis-PPARγ LBD, 400 nM FITC-TRAP220/MED1 peptide, 1 h at 25 °C, n = 3, read-out: MED1 TR-FRET IC50 (decrease in TRAP220/MED1 peptide interaction)
T3 construct: residues 203–477 (isoform 1 numbering) with a TEV-cleavable N-terminal hexa-his-tag; made in house; host or cells: Escherichia coli BL21(DE3), pET46 plasmid
T3 sequence (P37231 203-477 isoform P37231-2): T2 sequence (P37231 203-477 isoform P37231-2)
From the text: as §1, §2, §3

Row | IC50 [1] [nM] | EC50 [2] [nM] | IC50 [3] [nM] | effect on PPARγ-mediated transcription (in words) ([1]; 3xPPRE-luciferase reporter) | effect on NCoR1 corepressor peptide interaction, TR-FRET efficacy (in words) ([2]; TR-FRET ratio) | effect on TRAP220/MED1 coactivator peptide interaction, TR-FRET efficacy (in words) ([3]; TR-FRET ratio) | Structure (SMILES)
1 | 1.31 | 33 | 16 |  |  |  | CS(=O)(=O)c1ccc(C#N)cc1-c1cc(=O)c2c(F)cc(F)cc2[nH]1 [FX-909, 3-(5,7-difluoro-4-oxo-1,4-dihydroquinolin-2-yl)-4-(methylsulfonyl)benzonitrile]
2 | 1.58 | 17 | 5 |  |  |  | N#Cc1ccc(NC(=O)c2cc([N+](=O)[O-])ccc2Cl)cn1 [SR33068]
3 |  | 17 |  | no change in activity | relatively little change in efficacy | relatively little change in efficacy | O=C(Nc1ccccc1)c1cc([N+](=O)[O-])ccc1Cl [GW9662]
